The values below come from ChEMBL document CHEMBL5608189, “Design and synthesis of unique indole-benzosulfonamide oleanolic acid derivatives as potent antibacterial agents against MRSA” (Eur J Med Chem, 2024).

In series [1] the test system is Staphylococcus aureus. In words: Antibacterial activity against methicillin-resistant Staphylococcus aureus infected in female C57BL/6 mouse wound model assessed as log reduction in viable bacterial count at 10 mg/kg administered twice on wounds with 6 hrs interval and measured for 7 days. It counts as functional. Conditions: time 7 day.
Series [2] has as its system Cell membrane. As to the kind of experiment: Induction of cell membrane damage in methicillin-resistant Staphylococcus aureus assessed as increase in red fluorescence in PI channel at 8 times MIC incubated for 4 hrs by Calcein-AM/PI staining based confocal microscopic analysis. Format: cell membranes.
In series [3] the test system is Cell membrane. As to the kind of experiment: Induction of cell membrane in methicillin-resistant Staphylococcus aureus assessed as increase in fluorescence intensity by measuring number of PI-permeable cells at 4 times MIC measured after 2 hrs by PI staining based flow cytometry analysis (reference value: 5.71). Format: cell membranes.
The test system of series [4] is Staphylococcus aureus. As to the kind of experiment: Antibacterial activity against methicillin-resistant Staphylococcus aureus assessed as inhibition of bacterial growth at 1 times MIC measured every 2 hrs for 24 hrs by time kill assay. Format: functional, organism-based.
Series [5] deals with Staphylococcus aureus. As to the kind of experiment: Induction of intracellular ROS accumulation in methicillin-resistant Staphylococcus aureus assessed as number of fluorescence cells at 2 times MIC incubated for 6 hrs by DCFH-DA staining based flow cytometry analysis (reference value: 3.88).
Series [6] relates to Staphylococcus epidermidis. In words: Antibacterial activity against Staphylococcus epidermidis ATCC 12228 measured after 24 hrs by susceptibility assay. Format: functional.
In series [7] the test system is Staphylococcus aureus. As to the kind of experiment: Antibacterial activity against methicillin-resistant Staphylococcus aureus assessed as reduction in metabolic activity at 8 times MIC measured after 24 hrs by alamar blue assay relative to control. Format: functional. Also on record: scale not given: the % may be the effect or the level left.
Series [8] is described as follows: Toxicity in female C57BL/6 mouse assessed as erythema in skin at 10 to 30 mg/kg administered daily for 3 days. It counts as organism-based. Conditions: in vivo, 72 h, dose 10-30 mg/kg, time 3 day.
Series [9] has as its system Cell membrane. As to the kind of experiment: Disruption of cell membrane integrity in methicillin-resistant Staphylococcus aureus assessed as leakage of cellular content at 8 times MIC incubated for 8 hrs by TEM analysis. It counts as cell membranes.

Converted amounts (≈) assume the structure as drawn. The source made the active and inactive calls. No cut-off for these calls is given here.

`CC1(C)CC[C@]2(C(=O)NS(=O)(=O)c3ccc(Cl)cc3)CC[C@]3(C)C(=CC[C@@H]4[C@@]5(C)Cc6c([nH]c7c(C(=O)O)cccc67)C(C)(C)[C@@H]5CC[C@]43C)[C@@H]2C1`: the “log(activity)” value with Staphylococcus aureus [1] is listed as roughly 1.6. In addition, the result with Cell membrane [2], with Staphylococcus aureus [4] and in the series on Cell membrane [9] was Active. The Activity in the series on Cell membrane [3] was 13.5; with Staphylococcus aureus [5] it was 1.57; in the series on Staphylococcus aureus [7], 55%; in series [8], “Non-Toxic”. The MIC in series [6] came out at 2 µM (≈ 1.49 µg/mL).
